According to patent US20230391760A1, “HETEROCYCLIC GLP-1 AGONISTS” (Gasherbrum Bio, Inc., priority 2020, published 2023):

Target: GLP-1 Receptor (Homo sapiens, UniProt P43220)
Assay: GLP-1R agonist cAMP stimulation assay (HEK293/GLP1R/CRE-LUC cells, cAMP dynamic 2 Kit)
Assay type: cell-based
Settings: HEK293/CRE-Luc cell line stably expressing the GLP-1 Receptor, 30 min at 37° C.
Summary of the method: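 cAMP measured by HTRF competition (d2-labelled cAMP with cryptate antibody, 1 h, room temperature, protected from light). Before that, GLP1R/CRE-Luc HEK293 cells (1000/well) were exposed for 30 min at 37 °C to half-log compound dilutions in DPBS containing IBMX 0.5 mM and BSA 0.1%.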

Sequence of GLP-1 Receptor (P43220 24-463, species assumed): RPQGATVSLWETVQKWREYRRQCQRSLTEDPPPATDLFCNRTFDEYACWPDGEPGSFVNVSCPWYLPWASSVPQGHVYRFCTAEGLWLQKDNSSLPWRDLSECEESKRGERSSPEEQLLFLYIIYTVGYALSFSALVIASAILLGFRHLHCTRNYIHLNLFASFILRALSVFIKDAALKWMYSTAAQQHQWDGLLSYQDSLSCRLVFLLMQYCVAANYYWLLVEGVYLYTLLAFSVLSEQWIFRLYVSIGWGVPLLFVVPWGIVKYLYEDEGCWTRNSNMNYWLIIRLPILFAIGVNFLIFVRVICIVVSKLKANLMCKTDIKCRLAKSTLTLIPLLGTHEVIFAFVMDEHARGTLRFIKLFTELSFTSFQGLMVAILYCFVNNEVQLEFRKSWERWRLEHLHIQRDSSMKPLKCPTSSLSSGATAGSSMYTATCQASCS

Molecule	EC50
CC1(c2ccc(Cl)cn2)Oc2cccc(C3CCN(Cc4nc5cc(-c6noc(=O)[nH]6)ncc5n4C[C@@H]4CCO4)CC3)c2O1 (stereo partly drawn) [Compound 343a, 3-[2-({4-[2-(5-chloropyridin-2-yl)-2-methyl-2H-1,3-benzodioxol-4-yl]piperidin-1-yl}methyl)-3-{[(2S)-oxetan-2-yl]methyl}-3H-imidazo[4,5-c]pyridin-6-yl]-4,5-dihydro-1,2,4-oxadiazol-5-one]	0.079 nM
CC1(c2ccc(C#N)cc2F)Oc2cccc(C3CCN(Cc4nc5cc(-c6noc(=O)[nH]6)cnc5n4C[C@@H]4CCO4)CC3)c2O1 (stereo partly drawn) [Compound 329a, 3-fluoro-4-(2-methyl-4-{1-[(3-{[(2S)-oxetan-2-yl]methyl}-6-(5-oxo-4,5-dihydro-1,2,4-oxadiazol-3-yl)-3H-imidazo[4,5-b]pyridin-2-yl)methyl]piperidin-4-yl}-2H-1,3-benzodioxol-2-yl)benzonitrile]	0.25 nM
N#Cc1ccc(COc2cc(C3=CCN(Cc4nc5cc(-c6nnc(C(F)(F)F)[nH]6)ncc5n4C[C@@H]4CCO4)CC3)ccc2F)c(F)c1 [Compound 300a, 3-fluoro-4-[(2-fluoro-5-{1-[(3-{[(2S)-oxetan-2-yl]methyl}-6-[5-(trifluoromethyl)-4H-1,2,4-triazol-3-yl]-3H-imidazo[4,5-c]pyridin-2-yl)methyl]-1,2,3,6-tetrahydropyridin-4-yl}phenoxy)methyl]benzonitrile]	0.1 nM
CC1(c2ccc(Cl)cn2)Oc2cccc(C3CCN(Cc4nc5cc(-c6n[nH]c(C(F)(F)F)n6)ncc5n4C[C@@H]4CCO4)CC3)c2O1 (stereo partly drawn) [Compound 344a, 5-chloro-2-(2-methyl-4-{1-[(3-{[(2S)-oxetan-2-yl]methyl}-6-[5-(trifluoromethyl)-4H-1,2,4-triazol-3-yl]-3H-imidazo[4,5-c]pyridin-2-yl)methyl]piperidin-4-yl}-2H-1,3-benzodioxol-2-yl)pyridine]	0.022 nM
CC1(c2ccc(C#N)cc2)Oc2cccc(C3CCN(Cc4nc5cc(-c6nnc(C(F)(F)F)[nH]6)ccc5n4C[C@@H]4CCO4)CC3)c2O1 (stereo partly drawn) [Compound 260a, 4-(2-methyl-4-{1-[(1-{[(2S)-oxetan-2-yl]methyl}-5-[5-(trifluoromethyl)-4H-1,2,4-triazol-3-yl]-1H-1,3-benzodiazol-2-yl)methyl]piperidin-4-yl}-2H-1,3-benzodioxol-2-yl)benzonitrile]	0.031 nM
O=C(Cc1ccccc1)Nc1ccc2c(c1)nc(CN1CCC(c3cccc(OCc4ccc(Cl)cc4F)n3)CC1)n2C[C@@H]1CCO1 [Compound 130a, N-{2-[(4-{6-[(4-chloro-2-fluorophenyl)methoxy]pyridin-2-yl}piperidin-1-yl)methyl]-1-{[(2S)-oxetan-2-yl]methyl}-1H-1,3-benzodiazol-5-yl}-2-phenylacetamide]	5.1 nM
O=C(Nc1ccc2c(c1)nc(CN1CCC(c3cccc(OCc4ccc(Cl)cc4F)n3)CC1)n2C[C@@H]1CCO1)C1Cc2ccncc2C1 (stereo partly drawn) [Compound 180a, N-{2-[(4-{6-[(4-chloro-2-fluorophenyl)methoxy]pyridin-2-yl}piperidin-1-yl)methyl]-1-{[(2S)-oxetan-2-yl]methyl}-1H-1,3-benzodiazol-5-yl}-5H,6H,7H-cyclopenta[c]pyridine-6-carboxamide]	6 nM
N#Cc1ccc(COc2nc(C3CCN(Cc4nc5cc(-c6nnc(C(F)(F)F)[nH]6)ncc5n4C[C@@H]4CCO4)CC3)ncc2F)c(F)c1 [Compound 509a, 3-fluoro-4-{[(5-fluoro-2-{1-[(3-{[(2S)-oxetan-2-yl]methyl}-6-[5-(trifluoromethyl)-4H-1,2,4-triazol-3-yl]-3H-imidazo[4,5-c]pyridin-2-yl)methyl]piperidin-4-yl}pyrimidin-4-yl)oxy]methyl}benzonitrile]	0.074 nM
O=C(Nc1ccc2c(c1)nc(CN1CCC(c3cccc(OCc4ccc(Cl)cc4F)n3)CC1)n2C[C@@H]1CCO1)C1CCCOC1 (stereo partly drawn) [Compound 154a, N-{2-[(4-{6-[(4-chloro-2-fluorophenyl)methoxy]pyridin-2-yl}piperidin-1-yl)methyl]-1-{[(2S)-oxetan-2-yl]methyl}-1H-1,3-benzodiazol-5-yl}oxane-3-carboxamide]	0.13 nM
Cn1cc(-c2ccc3c(c2)nc(CN2CCC(c4cccc5c4OC(C)(c4ccc(Cl)cc4F)O5)CC2)n3C[C@@H]2CCO2)nn1 (stereo partly drawn) [Compound 238a, 2-((4-(2-(4-chloro-2-fluorophenyl)-2-methylbenzo[d][1,3]dioxol-4-yl)piperidin-1-yl)methyl)-5-(1-methyl-1H-1,2,3-triazol-4-yl)-1-(((S)-oxetan-2-yl)methyl)-1H-benzo[d]imidazole]	0.12 nM
CC1(C)CCC(C(=O)Nc2ccc3c(c2)nc(CN2CCC(c4cccc(OCc5ccc(Cl)cc5F)n4)CC2)n3C[C@@H]2CCO2)CO1 (stereo partly drawn) [Compound 192a, N-{2-[(4-{6-[(4-chloro-2-fluorophenyl)methoxy]pyridin-2-yl}piperidin-1-yl)methyl]-1-{[(2S)-oxetan-2-yl]methyl}-1H-1,3-benzodiazol-5-yl}-6,6-dimethyloxane-3-carboxamide]	6.2 nM
CC1(c2ccccc2)Oc2cccc(C3CCN(Cc4nc5cc(-c6nnc(C(F)(F)F)[nH]6)ccc5n4C[C@@H]4CCO4)CC3)c2O1 (stereo partly drawn) [Compound 405a, 2-{[4-(2-methyl-2-phenyl-2H-1,3-benzodioxol-4-yl)piperidin-1-yl]methyl}-1-{[(2S)-oxetan-2-yl]methyl}-5-[5-(trifluoromethyl)-4H-1,2,4-triazol-3-yl]-1H-1,3-benzodiazole]	0.53 nM
O=C(Nc1ccc2c(c1)nc(CN1CCC(c3cccc(OCc4ccccc4)n3)CC1)n2C[C@@H]1CCO1)c1cccnc1 [Compound 204a, N-[2-({4-[6-(benzyloxy)pyridin-2-yl]piperidin-1-yl}methyl)-1-{[(2S)-oxetan-2-yl]methyl}-1H-1,3-benzodiazol-5-yl]pyridine-3-carboxamide]	0.84 nM
N#Cc1cccc(C(=O)Nc2ccc3c(c2)nc(CN2CCC(c4cccc(OCc5ccc(Cl)cc5F)n4)CC2)n3C[C@@H]2CCO2)c1 [Compound 169a, N-{2-[(4-{6-[(4-chloro-2-fluorophenyl)methoxy]pyridin-2-yl}piperidin-1-yl)methyl]-1-{[(2S)-oxetan-2-yl]methyl}-1H-1,3-benzodiazol-5-yl}-3-cyanobenzamide]	0.92 nM
4-[2-(4-chloro-2-fluorophenyl)-2-methyl-2H-1,3-benzodioxol-4-yl]-1-[(3-{[(2S)-oxolan-2-yl]methyl}-6-[5-(trifluoromethyl)-4H-1,2,4-triazol-3-yl]-3H-imidazo[4,5-b]pyridin-2-yl)methyl]piperidine [Compound 247a]	3.4 nM
Nc1cccc(-c2ccc3c(c2)nc(CN2CCC(c4cccc(OCc5ccc(Cl)cc5F)n4)CC2)n3C[C@@H]2CCO2)n1 [Compound 212a, 6-{2-[(4-{6-[(4-chloro-2-fluorophenyl)methoxy]pyridin-2-yl}piperidin-1-yl)methyl]-1-{[(2S)-oxetan-2-yl]methyl}-1H-1,3-benzodiazol-5-yl}pyridin-2-amine]	7.5 nM
CC1(c2ccc(Cl)cn2)Oc2cccc(C3CCN(Cc4nc5cc(-c6n[nH]c(C(F)(F)F)n6)cnc5n4C[C@@H]4CCO4)CC3)c2O1 (mixture of isomers) [Compound 333a, 5-chloro-2-(2-methyl-4-{1-[(3-{[(2S)-oxetan-2-yl]methyl}-6-[5-(trifluoromethyl)-4H-1,2,4-triazol-3-yl]-3H-imidazo[4,5-b]pyridin-2-yl)methyl]piperidin-4-yl}-2H-1,3-benzodioxol-2-yl)pyridine]	0.03 nM
C[C@]1(c2ccc(Cl)cn2)Oc2cccc(C3CCN(Cc4nc5cc(-c6nnc(C#N)[nH]6)nnc5n4C[C@@H]4CCO4)CC3)c2O1 [Compound 482a, 5-[6-({4-[(2S)-2-(5-chloropyridin-2-yl)-2-methyl-2H-1,3-benzodioxol-4-yl]piperidin-1-yl}methyl)-7-{[(2S)-oxetan-2-yl]methyl}-7H-imidazo[4,5-c]pyridazin-3-yl]-4H-1,2,4-triazole-3-carbonitrile]	0.032 nM
C[C@]1(c2ccc(Cl)cc2F)Oc2cccc(C3CCN(Cc4nc5cc(-c6noc(=O)[nH]6)cnc5n4C[C@@H]4CCO4)CC3)c2O1 [Compound 262, 3-[2-({4-[(2S)-2-(4-chloro-2-fluorophenyl)-2-methyl-2H-1,3-benzodioxol-4-yl]piperidin-1-yl}methyl)-3-{[(2S)-oxetan-2-yl]methyl}-3H-imidazo[4,5-b]pyridin-6-yl]-4,5-dihydro-1,2,4-oxadiazol-5-one]	0.071 nM
O=C(Nc1ccc2c(c1)nc(CN1CCC(c3cccc(OCc4ccc(Cl)cc4F)n3)CC1)n2C[C@@H]1CCO1)c1ccncc1 [Compound 171a, N-{2-[(4-{6-[(4-chloro-2-fluorophenyl)methoxy]pyridin-2-yl}piperidin-1-yl)methyl]-1-{[(2S)-oxetan-2-yl]methyl}-1H-1,3-benzodiazol-5-yl}pyridine-4-carboxamide]	0.27 nM
COCCn1c(CN2CCC(c3cccc4c3OC(C)(c3ccc(Cl)cc3F)O4)CC2)nc2cc(-c3noc(=O)[nH]3)ccc21 (centres unmarked) [Compound 230a, 3-(2-((4-(2-(4-chloro-2-fluorophenyl)-2-methylbenzo[d][1,3]dioxol-4-yl)piperidin-1-yl)methyl)-1-(2-methoxyethyl)-1H-benzo[d]imidazol-5-yl)-1,2,4-oxadiazol-5(4H)-one]	0.88 nM
CC1(C(=O)Nc2ccc3c(c2)nc(CN2CCC(c4cccc(OCc5ccc(Cl)cc5F)n4)CC2)n3C[C@@H]2CCO2)CCCCO1 (stereo partly drawn) [Compound 183a, N-{2-[(4-{6-[(4-chloro-2-fluorophenyl)methoxy]pyridin-2-yl}piperidin-1-yl)methyl]-1-{[(2S)-oxetan-2-yl]methyl}-1H-1,3-benzodiazol-5-yl}-2-methyloxane-2-carboxamide]	4 nM
Cc1nnc(-c2ccc3c(c2)nc(CN2CCC(c4cccc5c4OC(C)(c4ccc(Cl)cc4F)O5)CC2)n3C[C@@H]2CCO2)[nH]1 (stereo partly drawn) [Compound 243a, 2-({4-[2-(4-chloro-2-fluorophenyl)-2-methyl-2H-1,3-benzodioxol-4-yl]piperidin-1-yl}methyl)-5-(5-methyl-4H-1,2,4-triazol-3-yl)-1-{[(2S)-oxetan-2-yl]methyl}-1H-1,3-benzodiazole]	0.052 nM
